For the data set the following is noted: rat, in vivo, iv, 10 mg/kg. As to the method: The delivery vehicle for drug administration was isotonic saline. Rat blood was collected from the catheter into K2-EDTA tubes […] at time points of 1, minute, 5 minutes, 15 minutes, 1 hour, 4 hours, 8 hours and 24 hours. Plasma was isolated by centrifugation at 1000 RPM for 5 minutes, and 150 uL of extraction solution (ice cold methanol/100 ng/mL daunorubicin internal standard) was added to 50 uL of each plasma sample. Samples were then vortexed for 10 minutes, centrifuged at 13,000 RPM for 10 minutes, and 150 uL of the supernatant is transferred to HPLC vials for analysis. […] A 5 μL sample injection was made onto a Waters 4 μm Nova Pak C18 (3.9×150 mm) at 30° C. with a flow rate of 0.750 mL per minute of 10 mM phosphate buffer (pH=1.4), methanol and acetonitrile (gradient from 70/10/20 to 40/10/50 for buffer/methanol/acetonitrile was made over eight minutes).

With `COc1cccc2c1C(=O)c1c(O)c3c(c(O)c1C2=O)C[C@@](O)(C(C)=O)C[C@@H]3O[C@H]1C[C@H](N)[C@H](O)[C@H](C)O1` [Free Daunorubicin, daunorubicin], the “AUC (area under the concentration versus time curve, exposure of daunorubicin to the plasma compartment)” value was found to be 1300 ng·h/mL and the “Half-life (terminal, elimination)” value is 3.3 h.

The values are drawn from patent US20140271885A1, “COPOLYMERS FOR STABLE MICELLE FORMULATIONS” (Intezyne Technologies, Inc., priority 2013, published 2014).
